# Literature values, collected in patent US20170209372A1, “A Method of Preparing Amorphous Solid Dispersion in Submicron Range by Co-Precipitation” (HOVIONE INTERNATIONAL LTD, priority 2014, published 2017).
row,SMILES,Log P
1,C(=C\c1ccccc1)/CN1CCN(C(c2ccccc2)c2ccccc2)CC1 [Cinnarizine],~5.77
2,CCC(C)n1ncn(-c2ccc(N3CCN(c4ccc(OCC5COC(Cn6cncn6)(c6ccc(Cl)cc6Cl)O5)cc4)CC3)cc2)c1=O (stereo not drawn) [Itraconazole],4.4
3,NC(=O)N1c2ccccc2C=Cc2ccccc21 [Carbamazepine],~2.6
